# Data reported in ChEMBL document CHEMBL5223123, “Synthesis and pharmacological characterization of multiply substituted 2H-chromene derivatives as P2Y6 receptor antagonists” (Bioorg Med Chem Lett, 2022).
# What was measured:
# [1] = target: T1, P2Y purinoceptor 6 (Homo sapiens, UniProt Q15077); assay: Antagonist activity at human P2Y6R expressed in human 1321N1 cells assessed as inhibition of […] calcium mobilization at 100 uM by FLIPR assay relative to control; assay type: cell-based; design: scale not given: the % may be the effect or the level left
# T1 sequence (Q15077 whole entry): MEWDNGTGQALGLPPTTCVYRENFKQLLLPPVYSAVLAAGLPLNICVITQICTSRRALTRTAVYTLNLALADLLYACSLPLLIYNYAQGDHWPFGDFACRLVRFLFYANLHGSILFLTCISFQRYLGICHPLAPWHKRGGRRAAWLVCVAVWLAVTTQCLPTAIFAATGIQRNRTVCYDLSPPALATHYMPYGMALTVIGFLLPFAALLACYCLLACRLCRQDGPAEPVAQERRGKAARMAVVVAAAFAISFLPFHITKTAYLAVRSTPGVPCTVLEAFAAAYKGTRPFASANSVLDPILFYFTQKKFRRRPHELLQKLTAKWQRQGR
# [2] = target: T1, P2Y purinoceptor 6; assay: Antagonist activity at human P2Y6R expressed in human 1321N1 cells assessed as inhibition of […] calcium mobilization by FLIPR assay; assay type: cell-based
# [3] = target: P2Y purinoceptor 1 (Meleagris gallopavo) (UniProt P49652); assay: Antagonist activity at Meleagris P2Y1R expressed in human 1321N1 cells assessed as inhibition of […] calcium mobilization at 100 uM by FLIPR assay relative to control; assay type: cell-based; design: scale not given: the % may be the effect or the level left
# P2Y purinoceptor 1 (Meleagris gallopavo), sequence (P49652 whole entry): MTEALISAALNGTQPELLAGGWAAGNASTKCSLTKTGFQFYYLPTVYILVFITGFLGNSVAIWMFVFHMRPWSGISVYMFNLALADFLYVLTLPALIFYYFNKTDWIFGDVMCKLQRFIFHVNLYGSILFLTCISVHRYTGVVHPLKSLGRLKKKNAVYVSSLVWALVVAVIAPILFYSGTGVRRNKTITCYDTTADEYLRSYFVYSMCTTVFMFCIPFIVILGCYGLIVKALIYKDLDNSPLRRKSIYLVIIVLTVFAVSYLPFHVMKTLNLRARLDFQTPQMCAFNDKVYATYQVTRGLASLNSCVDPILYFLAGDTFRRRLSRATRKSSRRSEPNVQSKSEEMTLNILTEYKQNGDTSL
# [4] = target: P2Y purinoceptor 2 (Homo sapiens) (UniProt P41231); assay: Antagonist activity at human P2Y2R expressed in human 1321N1 cells assessed as inhibition of […] calcium mobilization at 100 uM by FLIPR assay relative to control; assay type: cell-based; design: scale not given: the % may be the effect or the level left
# P2Y purinoceptor 2 (Homo sapiens), sequence (P41231 whole entry): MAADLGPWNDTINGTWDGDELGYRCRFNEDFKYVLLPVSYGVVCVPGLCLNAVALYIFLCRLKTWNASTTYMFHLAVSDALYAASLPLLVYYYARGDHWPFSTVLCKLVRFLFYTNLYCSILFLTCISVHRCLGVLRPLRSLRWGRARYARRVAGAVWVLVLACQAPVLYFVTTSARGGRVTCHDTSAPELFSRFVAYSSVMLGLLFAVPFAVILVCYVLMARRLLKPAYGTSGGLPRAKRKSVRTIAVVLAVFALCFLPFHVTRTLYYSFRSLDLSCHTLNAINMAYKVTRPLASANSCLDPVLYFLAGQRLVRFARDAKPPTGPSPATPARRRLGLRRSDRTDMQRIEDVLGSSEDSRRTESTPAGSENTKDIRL
# [5] = target: P2Y purinoceptor 4 (Homo sapiens) (UniProt P51582); assay: Antagonist activity at human P2Y4R expressed in human 1321N1 cells assessed as inhibition of […] calcium mobilization at 100 uM by FLIPR assay relative to control; assay type: cell-based; design: scale not given: the % may be the effect or the level left
# P2Y purinoceptor 4 (Homo sapiens), sequence (P51582 whole entry): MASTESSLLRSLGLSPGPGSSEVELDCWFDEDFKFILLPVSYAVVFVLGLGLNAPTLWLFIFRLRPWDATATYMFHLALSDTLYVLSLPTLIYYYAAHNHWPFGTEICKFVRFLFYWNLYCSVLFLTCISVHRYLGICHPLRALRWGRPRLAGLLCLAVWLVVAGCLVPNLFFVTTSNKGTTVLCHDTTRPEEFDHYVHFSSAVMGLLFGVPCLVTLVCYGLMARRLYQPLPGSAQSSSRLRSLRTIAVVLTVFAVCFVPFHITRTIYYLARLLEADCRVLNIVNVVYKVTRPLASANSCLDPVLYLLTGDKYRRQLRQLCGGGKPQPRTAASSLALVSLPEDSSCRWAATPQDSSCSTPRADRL
# [6] = target: P2Y purinoceptor 6 (Mus musculus, UniProt Q9ERK9); assay: Antagonist activity at mouse P2Y6R expressed in human 1321N1 cells assessed as inhibition of […] calcium mobilization by FLIPR assay; assay type: cell-based
# P2Y purinoceptor 6 (Mus musculus, UniProt Q9ERK9), sequence (Q9ERK9 whole entry): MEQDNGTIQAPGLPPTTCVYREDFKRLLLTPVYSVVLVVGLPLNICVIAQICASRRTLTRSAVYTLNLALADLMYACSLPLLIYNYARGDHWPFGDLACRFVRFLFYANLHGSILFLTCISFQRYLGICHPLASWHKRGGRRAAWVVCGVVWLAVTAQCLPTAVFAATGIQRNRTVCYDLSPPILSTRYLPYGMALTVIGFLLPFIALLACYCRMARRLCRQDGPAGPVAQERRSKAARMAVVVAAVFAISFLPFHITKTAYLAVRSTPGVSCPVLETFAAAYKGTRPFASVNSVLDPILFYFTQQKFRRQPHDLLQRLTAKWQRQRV
# [7] = target: T2, Alpha-2C adrenergic receptor (Homo sapiens, UniProt P18825); assay: Binding affinity to adrenergic alpha 2c receptor (unknown origin)
# T2 sequence (P18825 whole entry): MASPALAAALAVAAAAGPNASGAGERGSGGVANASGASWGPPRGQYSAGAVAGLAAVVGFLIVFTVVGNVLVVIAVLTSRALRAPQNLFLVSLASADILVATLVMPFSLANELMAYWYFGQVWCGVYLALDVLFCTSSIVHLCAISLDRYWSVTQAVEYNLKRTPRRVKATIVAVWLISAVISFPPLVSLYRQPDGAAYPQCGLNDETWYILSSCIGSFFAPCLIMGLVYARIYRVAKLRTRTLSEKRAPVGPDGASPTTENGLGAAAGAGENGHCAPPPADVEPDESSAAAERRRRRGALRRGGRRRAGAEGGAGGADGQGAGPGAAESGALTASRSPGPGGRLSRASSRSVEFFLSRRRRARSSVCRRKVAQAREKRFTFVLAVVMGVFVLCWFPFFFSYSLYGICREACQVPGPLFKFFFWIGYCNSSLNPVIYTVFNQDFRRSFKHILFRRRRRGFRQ
# [8] = target: Sigma non-opioid intracellular receptor 1 (Homo sapiens, UniProt Q99720); assay: Binding affinity to sigma 1 receptor (unknown origin)
# Sigma non-opioid intracellular receptor 1, sequence (Q99720 whole entry): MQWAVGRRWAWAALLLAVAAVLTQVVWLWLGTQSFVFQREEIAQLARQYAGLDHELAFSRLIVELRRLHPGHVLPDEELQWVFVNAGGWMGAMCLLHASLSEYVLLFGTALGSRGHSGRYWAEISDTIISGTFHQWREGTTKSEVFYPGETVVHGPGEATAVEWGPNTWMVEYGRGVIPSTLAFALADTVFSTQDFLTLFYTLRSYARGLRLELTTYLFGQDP
# [9] = target: Histamine H1 receptor (Homo sapiens, UniProt P35367); assay: Binding affinity to histamine H1 receptor (unknown origin)
# Histamine H1 receptor, sequence (P35367 whole entry): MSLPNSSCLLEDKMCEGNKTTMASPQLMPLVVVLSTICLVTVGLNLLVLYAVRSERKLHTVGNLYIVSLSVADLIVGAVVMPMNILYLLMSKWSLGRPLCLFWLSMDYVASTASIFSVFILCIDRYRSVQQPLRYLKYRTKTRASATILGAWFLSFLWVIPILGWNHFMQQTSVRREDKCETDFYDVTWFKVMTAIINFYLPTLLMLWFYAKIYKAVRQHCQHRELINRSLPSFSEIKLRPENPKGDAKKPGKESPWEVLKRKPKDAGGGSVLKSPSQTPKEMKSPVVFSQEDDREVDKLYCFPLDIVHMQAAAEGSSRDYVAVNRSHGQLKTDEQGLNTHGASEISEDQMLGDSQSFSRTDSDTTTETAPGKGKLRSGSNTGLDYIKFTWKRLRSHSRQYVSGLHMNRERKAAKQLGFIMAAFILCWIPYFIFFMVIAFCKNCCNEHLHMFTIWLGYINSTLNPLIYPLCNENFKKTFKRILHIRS
# [10] = target: Beta-3 adrenergic receptor (Homo sapiens, UniProt P13945); assay: Binding affinity to adrenergic beta 3 (unknown origin)
# Beta-3 adrenergic receptor, sequence (P13945 whole entry): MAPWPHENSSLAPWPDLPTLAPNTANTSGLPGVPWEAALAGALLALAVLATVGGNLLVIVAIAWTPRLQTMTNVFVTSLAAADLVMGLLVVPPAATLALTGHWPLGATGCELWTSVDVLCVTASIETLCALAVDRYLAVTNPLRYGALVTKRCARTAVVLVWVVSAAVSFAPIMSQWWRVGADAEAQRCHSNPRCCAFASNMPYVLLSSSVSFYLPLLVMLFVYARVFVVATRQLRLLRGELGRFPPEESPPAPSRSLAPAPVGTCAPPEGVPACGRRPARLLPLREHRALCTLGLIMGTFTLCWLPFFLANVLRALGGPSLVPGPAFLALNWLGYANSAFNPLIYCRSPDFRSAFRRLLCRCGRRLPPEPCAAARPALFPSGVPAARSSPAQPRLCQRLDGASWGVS
# [11] = target: 5-hydroxytryptamine receptor 2A (Homo sapiens, UniProt P28223); assay: Binding affinity to 5-HT2A (unknown origin)
# 5-hydroxytryptamine receptor 2A, sequence (P28223 whole entry): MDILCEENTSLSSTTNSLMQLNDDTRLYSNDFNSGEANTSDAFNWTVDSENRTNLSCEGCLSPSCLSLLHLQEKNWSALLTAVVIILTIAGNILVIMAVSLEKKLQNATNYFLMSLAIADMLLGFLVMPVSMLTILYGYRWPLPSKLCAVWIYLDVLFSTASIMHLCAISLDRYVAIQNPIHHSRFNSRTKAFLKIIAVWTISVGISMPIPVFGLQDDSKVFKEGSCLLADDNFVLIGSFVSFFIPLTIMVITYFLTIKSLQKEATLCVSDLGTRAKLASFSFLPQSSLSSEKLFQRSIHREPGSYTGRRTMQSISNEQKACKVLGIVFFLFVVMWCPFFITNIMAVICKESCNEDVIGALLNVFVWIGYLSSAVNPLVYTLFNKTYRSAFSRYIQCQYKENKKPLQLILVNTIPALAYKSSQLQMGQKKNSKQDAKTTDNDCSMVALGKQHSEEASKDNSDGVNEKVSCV
# [12] = tested on: HEK293; assay: Cytotoxicity against HEK293 cells assessed as reduction in cell viability at 100 uM measured after 24 hrs by MTT assay relative to control; assay type: toxicity, cell-based; settings: human, hek293, 24 h
# [13] = target: D(1B) dopamine receptor (Homo sapiens, UniProt P21918); assay: Binding affinity to dopamine 5 receptor (unknown origin)
# D(1B) dopamine receptor, sequence (P21918 whole entry): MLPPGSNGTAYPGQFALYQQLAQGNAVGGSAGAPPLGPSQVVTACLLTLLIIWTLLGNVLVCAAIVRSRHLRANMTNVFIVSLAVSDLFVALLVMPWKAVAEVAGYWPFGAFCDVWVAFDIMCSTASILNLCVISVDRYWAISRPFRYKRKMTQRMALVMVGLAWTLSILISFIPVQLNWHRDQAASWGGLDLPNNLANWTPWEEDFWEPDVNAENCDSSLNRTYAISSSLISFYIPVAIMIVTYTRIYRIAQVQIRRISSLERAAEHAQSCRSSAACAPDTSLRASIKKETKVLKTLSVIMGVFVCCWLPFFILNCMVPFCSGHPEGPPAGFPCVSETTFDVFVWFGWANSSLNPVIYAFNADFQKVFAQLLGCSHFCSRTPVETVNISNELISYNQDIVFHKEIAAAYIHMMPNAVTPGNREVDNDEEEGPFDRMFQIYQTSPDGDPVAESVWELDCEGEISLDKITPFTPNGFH
# [14] = target: P2Y purinoceptor 6 (Mus musculus) (UniProt Q9ERK9); assay: Antagonist activity at mouse P2Y6R expressed in human 1321N1 cells assessed as inhibition of […] calcium mobilization at 20 uM by FLIPR assay relative to control; assay type: cell-based; design: scale not given: the % may be the effect or the level left
# P2Y purinoceptor 6 (Mus musculus), sequence (Q9ERK9 whole entry): as the sequence (Q9ERK9 whole entry) above
# [15] = target: D(3) dopamine receptor (Homo sapiens, UniProt P35462); assay: Binding affinity to dopamine 3 receptor (unknown origin)
# D(3) dopamine receptor, sequence (P35462 whole entry): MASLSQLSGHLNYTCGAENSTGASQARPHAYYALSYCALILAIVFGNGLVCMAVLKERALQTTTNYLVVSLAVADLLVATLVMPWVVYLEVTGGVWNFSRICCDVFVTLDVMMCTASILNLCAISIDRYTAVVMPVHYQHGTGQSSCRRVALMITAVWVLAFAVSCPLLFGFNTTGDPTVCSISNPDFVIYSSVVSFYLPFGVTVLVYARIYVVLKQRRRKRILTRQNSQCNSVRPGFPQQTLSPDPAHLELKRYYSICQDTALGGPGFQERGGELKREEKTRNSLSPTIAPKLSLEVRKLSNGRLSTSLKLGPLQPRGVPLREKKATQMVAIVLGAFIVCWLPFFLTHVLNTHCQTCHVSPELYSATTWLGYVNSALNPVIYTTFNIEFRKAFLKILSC
# [16] = target: Sigma intracellular receptor 2 (Homo sapiens, UniProt Q5BJF2); assay: Binding affinity to sigma 2 receptor (unknown origin)
# Sigma intracellular receptor 2, sequence (Q5BJF2 whole entry): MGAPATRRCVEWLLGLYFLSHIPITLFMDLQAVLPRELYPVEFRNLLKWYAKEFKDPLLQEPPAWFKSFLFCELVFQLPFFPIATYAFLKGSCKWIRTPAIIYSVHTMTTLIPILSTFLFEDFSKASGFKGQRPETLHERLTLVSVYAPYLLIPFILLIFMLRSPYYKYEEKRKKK
structure (smiles),measurement,setting,value
NC1Cc2ccccc2OC1C(F)(F)F (racemic),Activity,[1],0%
CC[Si](C#Cc1cccc2c1OC(C(F)(F)F)C([N+](=O)[O-])=C2)(CC)CC (racemic),IC50,[2],0.461 µM
same,Activity,[3],39.2%
same,Activity,[4],< 30%
same,Activity,[5],< 30%
same,IC50,[6],6.15 µM
same,Ki,[7],1.1 µM
same,Ki,[8],6.4 µM
same,Ki,[9],3.5 µM
same,Ki,[10],7.3 µM
same,Ki,[11],4.2 µM
same,Activity,[12],83%
CC[Si](C#Cc1ccc2c(c1)C=C([N+](=O)[O-])C(C(F)(F)F)O2)(CC)CC (racemic),Activity,[3],< 30%
same,Activity,[4],< 30%
same,Activity,[5],< 30%
same,IC50,[6],4.94 µM
same,Activity,[12],73%
O=[N+]([O-])C1=Cc2cccc(I)c2OC1C(F)(F)F (racemic),IC50,[6],17.6 µM
C[Si](C)(C)C#Cc1ccc2c(c1)C=C([N+](=O)[O-])C(C(F)(F)F)O2 (racemic),Activity,[3],< 30%
same,Activity,[4],< 30%
same,Activity,[5],< 30%
same,Activity,[12],58%
O=[N+]([O-])C1=Cc2cccc(Cl)c2OC1C(F)(F)F (racemic),IC50,[2],3.69 µM
same,IC50,[6],15.2 µM
O=[N+]([O-])C1=Cc2cc(C#Cc3ccc(Cl)cc3)ccc2OC1C(F)(F)F (racemic),IC50,[2],5.35 µM
O=[N+]([O-])C1=Cc2c(Cl)cccc2OC1C(F)(F)F (racemic),IC50,[2],15.7 µM
O=[N+]([O-])C1=Cc2cc(C#Cc3ccc(CO)cc3)ccc2OC1C(F)(F)F (racemic),IC50,[6],31.6 µM
same,Ki,[13],0.6 µM
O=[N+]([O-])C1=Cc2c(I)cccc2OC1C(F)(F)F (racemic),IC50,[2],13.1 µM
O=[N+]([O-])C1=Cc2cc(F)cc(F)c2OC1C(F)(F)F (racemic),IC50,[2],2.99 µM
same,IC50,[6],17.8 µM
O=[N+]([O-])C1=Cc2ccc(Cl)cc2OC1C(F)(F)F (racemic),IC50,[2],7.98 µM
CC[Si](C#Cc1ccc2c(c1)C=C([N+](=O)[O-])C(C1CC1)O2)(CC)CC (racemic),Activity,[1]; filed as antagonist,50%
CC1Oc2ccc(I)cc2C=C1[N+](=O)[O-] (racemic),IC50,[2],36.8 µM
FC(F)(F)C1Oc2ccc(Cl)cc2-c2n[nH]nc21 (racemic),Activity,[1]; filed as antagonist,43%
O=[N+]([O-])C1=Cc2ccccc2OC1C(F)(F)F (racemic),IC50,[6],185 µM
O=[N+]([O-])C1=Cc2cc(I)ccc2OC1C(F)(F)F (racemic),IC50,[6],28.7 µM
O=C(O)c1ccc(C#Cc2ccc3c(c2)C=C([N+](=O)[O-])C(C(F)(F)F)O3)cc1 (racemic),Activity,[3],< 30%
same,Activity,[4],< 30%
same,Activity,[5],< 30%
same,Activity,[14],14%
same,Activity,[12],95%
O=[N+]([O-])C1=Cc2cc(Cl)ccc2OC1C(F)(F)F (racemic),IC50,[6],30.8 µM
same,Ki,[15],0.78 µM
same,Ki,[13],2.79 µM
O=[N+]([O-])C1=Cc2cc(C#Cc3ccc(F)cc3)ccc2OC1C(F)(F)F (racemic),IC50,[2],8.86 µM
O=[N+]([O-])C1=Cc2cc(Br)ccc2OC1C(F)(F)F (racemic),IC50,[6],20.2 µM
CC[Si](C#Cc1cccc2c1C=C([N+](=O)[O-])C(C(F)(F)F)O2)(CC)CC (racemic),IC50,[2],4.77 µM
O=[N+]([O-])C1=Cc2cc(I)ccc2OC1C1CCC1 (racemic),IC50,[2],33.1 µM
O=[N+]([O-])C1=Cc2cc(F)cc(Br)c2OC1C(F)(F)F (racemic),IC50,[6],14.5 µM
O=[N+]([O-])C1=Cc2cc(F)ccc2OC1C(F)(F)F (racemic),Ki,[16],8.6 µM
